The test system of one assay is MCF7. In words: Cytotoxicity against human MCF7 cells. The class given is functional, cell-based.
Another assay deals with Bacillus subtilis. In words: Antibacterial activity against Bacillus subtilis. In kind it is functional, organism-based.
In a further assay the test system is Candida albicans. Description: Antifungal activity against Candida albicans. The class given is functional, organism-based.
Another assay has as its system Escherichia coli. In words: Antibacterial activity against Escherichia coli. In kind it is functional, organism-based.
The subject of the next assay is Staphylococcus aureus. In words: Antibacterial activity against Staphylococcus aureus. In kind it is functional, organism-based.
A further assay deals with Pseudomonas aeruginosa. Description: Antibacterial activity against Pseudomonas aeruginosa. In kind it is functional, organism-based.
A short description of assay [1]: Cytotoxicity against human Lu cells. In kind it is functional, cell-based.
For a further assay, the system named is HepG2. In words: Cytotoxicity against human HepG2 cells. In kind it is functional, cell-based.
A further assay relates to KB. In words: Cytotoxicity against human KB cells. The class given is functional, cell-based.

Molecules are shown by their SMILES. Calls of active or inactive are those of the source. The calls are words filed in the database; no cut-off is given here.

A word on the IC50: it is the concentration that gives 50% inhibition.

As for `O=C1c2ccccc2C(=O)[C@]23COC(c4ccc(F)cc4)=C[C@]12O3`, the 50% inhibitory concentration (IC50) (in the assay with MCF7; in assay [1]; in the assay on HepG2; in the assay with KB) was greater than 31 µM each time. In addition, the result in the assay with Bacillus subtilis, in the assay on Candida albicans, with Escherichia coli, with Staphylococcus aureus and in the assay on Pseudomonas aeruginosa was inactive.

Take `O=C1C2=C(COC(c3ccc(F)cc3)=C2)C(=O)c2ccccc21`: the IC50 came to 12.9 µM in the assay with MCF7, 11.5 µM in assay [1], 3.6 µM in the assay on HepG2 and 1.5 µM with KB. Also, the outcome in the assay with Bacillus subtilis, in the assay with Candida albicans, in the assay with Escherichia coli, in the assay with Staphylococcus aureus and in the assay on Pseudomonas aeruginosa was inactive.

For `Cc1c2ccncc2c(C)c2c1[nH]c1ccccc12` [ELLIPTECINE], the values for the IC50 (in the assay with MCF7; in assay [1]; in the assay with HepG2) were 1.8 µM, 2.2 µM and 1.3 µM, respectively.

On to `O=C1c2ccccc2C(=O)[C@]23COC(c4ccc(F)cc4)C[C@]12O3` (some centres undefined), for which the IC50 (in the assay on MCF7; in [1]; in the assay on HepG2; in the assay on KB) was greater than 30.8 µM throughout. For the same molecule, the result in the assay on Bacillus subtilis, with Candida albicans, in the assay with Escherichia coli, in the assay with Staphylococcus aureus and with Pseudomonas aeruginosa was inactive.

Regarding `CC1C[C@@]23O[C@]2(CO1)C(=O)c1ccccc1C3=O` (some centres undefined), the IC50 (in the assay on MCF7; in [1]; in the assay with HepG2; in the assay on KB) was greater than 41 µM each time. The result in the assay on Bacillus subtilis, in the assay with Candida albicans, with Escherichia coli, with Staphylococcus aureus and with Pseudomonas aeruginosa was inactive.

Turning to `CC1=CC2=C(CO1)C(=O)c1ccccc1C2=O`, the IC50 with MCF7 is 29.5 µM; in [1] it was 13.1 µM; in the assay with HepG2, 6.7 µM; in the assay with KB it was 5.6 µM. Moreover, the outcome with Bacillus subtilis, in the assay with Candida albicans, in the assay with Escherichia coli and in the assay on Pseudomonas aeruginosa was inactive. Also, in the assay with Staphylococcus aureus, the outcome was Active.

For `CC1=C[C@@]23O[C@]2(CO1)C(=O)c1ccccc1C3=O`, the half-maximal inhibitory concentration (IC50) (with MCF7; in assay [1]; with HepG2; with KB) was greater than 41.3 µM in each case. For the same molecule, the outcome with Bacillus subtilis, with Candida albicans, with Escherichia coli, in the assay on Staphylococcus aureus and with Pseudomonas aeruginosa was inactive.

As to `O=C1C2=C(COC(c3ccccc3)=C2)C(=O)c2ccccc21`, the IC50 was greater than 34.7 µM with MCF7, greater than 34.7 µM in assay [1], 12.2 µM in the assay on HepG2 and 7.5 µM in the assay on KB. In addition, the result in the assay with Bacillus subtilis, in the assay on Candida albicans, in the assay on Escherichia coli, in the assay with Staphylococcus aureus and in the assay with Pseudomonas aeruginosa was inactive.

Regarding `O=C1C2=C(CC(c3ccccc3)OC2)C(=O)c2ccccc21` (centres undefined), the 50% inhibitory concentration (IC50) in the assay with MCF7 is 27.2 µM; in assay [1], greater than 34.4 µM; with HepG2, 18.7 µM; in the assay on KB, 16.1 µM. Besides, the result in the assay with Bacillus subtilis, in the assay on Candida albicans, in the assay with Escherichia coli, in the assay on Staphylococcus aureus and in the assay on Pseudomonas aeruginosa was inactive.

As for `CC(C)C1CC2=C(CO1)C(=O)c1ccccc1C2=O` (centres undefined), the IC50 is 26.2 µM in the assay on MCF7, greater than 39 µM in assay [1], 19.8 µM in the assay on HepG2 and 17.5 µM in the assay with KB. Besides, the result with Bacillus subtilis, in the assay with Candida albicans, in the assay with Escherichia coli, with Staphylococcus aureus and with Pseudomonas aeruginosa was inactive.

As for `O=C1c2ccccc2C(=O)[C@]23COC(c4ccccc4)=C[C@]12O3`, the IC50 (in the assay on MCF7; in assay [1]; in the assay with HepG2; in the assay with KB) was greater than 32.9 µM throughout. For the same molecule, the outcome with Bacillus subtilis, in the assay on Candida albicans, in the assay on Escherichia coli, in the assay on Staphylococcus aureus and with Pseudomonas aeruginosa was inactive.

As for `CC1CC2=C(CO1)C(=O)c1ccccc1C2=O` (centres undefined), the half-inhibitory concentration (IC50) with MCF7 was 22.1 µM; in [1], 23.2 µM; in the assay on HepG2 it was 22.5 µM; in the assay on KB it was 25.3 µM. Also, the outcome in the assay with Bacillus subtilis, in the assay with Candida albicans, with Escherichia coli, with Staphylococcus aureus and in the assay on Pseudomonas aeruginosa was inactive.

As to `CC(C)C1=CC2=C(CO1)C(=O)c1ccccc1C2=O`, the IC50 with MCF7 was 6.7 µM; in assay [1], 14.9 µM; in the assay on HepG2, 10.7 µM; with KB it was 4.1 µM. Also, the result in the assay on Bacillus subtilis, in the assay on Candida albicans, in the assay on Escherichia coli and in the assay on Pseudomonas aeruginosa was inactive. For the same molecule, the result in the assay on Staphylococcus aureus was Active.

On to `O=C1C2=C(CC(c3ccc(F)cc3)OC2)C(=O)c2ccccc21` (centres undefined), for which the IC50 is greater than 32.4 µM in the assay with MCF7, 22.1 µM in [1], 23.4 µM in the assay with HepG2 and 20.6 µM in the assay with KB. Also, the outcome with Bacillus subtilis, in the assay on Candida albicans, in the assay with Escherichia coli, with Staphylococcus aureus and in the assay on Pseudomonas aeruginosa was inactive.

As to `CC(C)C1C[C@@]23O[C@]2(CO1)C(=O)c1ccccc1C3=O` (some centres undefined), the IC50 (with MCF7; in [1]; with HepG2; with KB) was greater than 32.6 µM throughout. Besides, the outcome in the assay with Bacillus subtilis, in the assay on Candida albicans, in the assay with Escherichia coli, in the assay with Staphylococcus aureus and with Pseudomonas aeruginosa was inactive.

Values taken from ChEMBL document CHEMBL3600281, “Synthesis and anticancer properties of new (dihydro)pyranonaphthoquinones and their epoxy analogs” (Bioorg Med Chem Lett, 2015).
